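Growth conditions: 96-well plates. Treatment: test compound, 48 hours, 5 concentrations. Analysis: linear interpolation between bracketing concentrations; unreached endpoints set to highest concentration. Definition used: TGI = concentration required for complete inhibition of growth.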
Columns and labels:
Test in all cases: NCI tumour cell line growth inhibition, 48 h
[1] = system: 786-0 renal
[2] = system: A498 renal
[3] = system: A549 NSCLC
[4] = system: ACHN renal
[5] = system: BT-549 breast
[6] = system: CAKI-1 renal
[7] = system: CCRF-CEM leukemia
[8] = system: COLO 205 colon
[9] = system: DLD-1 colon
[10] = system: DMS 114 small cell lung
[11] = system: DMS 273 small cell lung
[12] = system: DU-145 prostate
[13] = system: EKVX NSCLC
[14] = system: HCC-2998 colon
[15] = system: HCT-116 colon
[16] = system: HCT-15 colon
[17] = system: HL-60(TB) leukemia
[18] = system: HOP-18 NSCLC
[19] = system: HOP-62 NSCLC
[20] = system: HOP-92 NSCLC
[21] = system: HS 578T breast
[22] = system: HT29 colon
[23] = system: IGROV1 ovarian
[24] = system: K-562 leukemia
[25] = system: KM12 colon
[26] = system: KM20L2 colon
[27] = system: LOX IMVI melanoma
[28] = system: LXFL 529 NSCLC
[29] = system: M14 melanoma
[30] = system: M19-MEL melanoma
[31] = system: MALME-3M melanoma
[32] = system: MCF7 breast
[33] = system: MDA-MB-231 breast
[34] = system: MDA-MB-435
[35] = system: MDA-N
[36] = system: MOLT-4 leukemia
[37] = system: NCI-H226 lung
[38] = system: NCI-H23 lung
[39] = system: NCI-H460 lung
[40] = system: NCI-H522 lung
[41] = system: NCI/ADR-RES ovarian
[42] = system: OVCAR-3 ovarian
[43] = system: OVCAR-4 ovarian
[44] = system: OVCAR-5 ovarian
[45] = system: OVCAR-8 ovarian
[46] = system: PC-3 prostate
[47] = system: RPMI-8226 leukemia
[48] = system: RXF 393 renal
[49] = system: RXF-631 renal
[50] = system: SF-268 CNS
[51] = system: SF-295 CNS
[52] = system: SF-539 CNS
[53] = system: SK-MEL-2 melanoma
[54] = system: SK-MEL-28 melanoma
[55] = system: SK-MEL-5 melanoma
[56] = system: SK-OV-3 ovarian
[57] = system: SN12C renal
[58] = system: SNB-19 CNS
[59] = system: SNB-75 CNS
[60] = system: SNB-78 CNS
[61] = system: SR leukemia
[62] = system: SW-620 colon
[63] = system: T-47D breast
[64] = system: TK-10 renal
[65] = system: U251 CNS
[66] = system: UACC-257 melanoma
[67] = system: UACC-62 melanoma
[68] = system: UO-31 renal
[69] = system: XF 498 CNS
[70] = system: P388 leukemia
[71] = system: P388/ADR leukemia
[72] = system: SN12K1 renal

SMILES: CCOC(=O)CN1C(=O)c2cc([N+](=O)[O-])cc3cc([N+](=O)[O-])cc(c23)C1=O
- TGI [1]: > 100 µM
- TGI [2]: > 100 µM
- TGI [3]: > 100 µM
- TGI [4]: > 100 µM
- TGI [5]: > 100 µM
- TGI [6]: > 100 µM
- TGI [7]: 23.2 µM
- TGI [8]: > 100 µM
- TGI [9]: > 100 µM
- TGI [10]: > 100 µM
- TGI [11]: > 100 µM
- TGI [12]: > 100 µM
- TGI [13]: > 100 µM
- TGI [14]: > 100 µM
- TGI [15]: > 100 µM
- TGI [16]: > 100 µM
- TGI [17]: 8.99 µM
- TGI [18]: > 100 µM
- TGI [19]: > 100 µM
- TGI [20]: > 100 µM
- TGI [21]: > 100 µM
- TGI [22]: > 100 µM
- TGI [23]: > 100 µM
- TGI [24]: > 100 µM
- TGI [25]: > 100 µM
- TGI [26]: > 100 µM
- TGI [27]: > 100 µM
- TGI [28]: > 100 µM
- TGI [29]: > 100 µM
- TGI [30]: > 100 µM
- TGI [31]: > 100 µM
- TGI [32]: > 100 µM
- TGI [33]: > 100 µM
- TGI [34]: > 100 µM
- TGI [35]: > 100 µM
- TGI [36]: > 64.9 µM
- TGI [37]: > 100 µM
- TGI [38]: > 100 µM
- TGI [39]: > 100 µM
- TGI [40]: 46.3 µM
- TGI [41]: > 100 µM
- TGI [42]: > 100 µM
- TGI [43]: > 100 µM
- TGI [44]: > 100 µM
- TGI [45]: > 100 µM
- TGI [46]: > 100 µM
- TGI [47]: > 100 µM
- TGI [48]: 83 µM
- TGI [49]: > 100 µM
- TGI [50]: > 94.6 µM
- TGI [51]: > 100 µM
- TGI [52]: 84.3 µM
- TGI [53]: > 62.3 µM
- TGI [54]: > 100 µM
- TGI [55]: > 100 µM
- TGI [56]: > 100 µM
- TGI [57]: > 100 µM
- TGI [58]: > 100 µM
- TGI [59]: > 100 µM
- TGI [60]: > 97.1 µM
- TGI [61]: 30.7 µM
- TGI [62]: > 100 µM
- TGI [63]: > 100 µM
- TGI [64]: > 100 µM
- TGI [65]: > 100 µM
- TGI [66]: > 100 µM
- TGI [67]: > 100 µM
- TGI [68]: > 100 µM
- TGI [69]: > 100 µM

SMILES: O=C[C@@H](CO)O[C@H](C=O)n1cnc2c(=O)[nH]cnc21
- TGI [1]: 2010 µM
- TGI [2]: 2150 µM
- TGI [3]: 2460 µM
- TGI [4]: 2050 µM
- TGI [5]: 2370 µM
- TGI [6]: 1590 µM
- TGI [7]: 559 µM
- TGI [8]: 992 µM
- TGI [9]: 395 µM
- TGI [10]: 202 µM
- TGI [11]: 1570 µM
- TGI [12]: 1450 µM
- TGI [13]: 1320 µM
- TGI [14]: 1200 µM
- TGI [15]: 1270 µM
- TGI [16]: 417 µM
- TGI [17]: 217 µM
- TGI [18]: 1670 µM
- TGI [19]: 630 µM
- TGI [20]: 865 µM
- TGI [21]: 2390 µM
- TGI [22]: 1910 µM
- TGI [23]: 1360 µM
- TGI [24]: 496 µM
- TGI [25]: 1270 µM
- TGI [26]: 2130 µM
- TGI [27]: 534 µM
- TGI [29]: 1860 µM
- TGI [30]: 1540 µM
- TGI [31]: 1300 µM
- TGI [32]: 409 µM
- TGI [33]: 1010 µM
- TGI [34]: 2300 µM
- TGI [35]: 1610 µM
- TGI [36]: 686 µM
- TGI [37]: 1780 µM
- TGI [38]: 1530 µM
- TGI [39]: 2130 µM
- TGI [40]: 866 µM
- TGI [41]: 1810 µM
- TGI [42]: 1410 µM
- TGI [43]: 1150 µM
- TGI [44]: 1820 µM
- TGI [45]: 2020 µM
- TGI [70]: 374 µM
- TGI [71]: 257 µM
- TGI [46]: 1780 µM
- TGI [47]: 633 µM
- TGI [48]: 1470 µM
- TGI [50]: 1840 µM
- TGI [51]: 2230 µM
- TGI [52]: 2230 µM
- TGI [53]: 1400 µM
- TGI [54]: 1530 µM
- TGI [55]: 1150 µM
- TGI [56]: 1630 µM
- TGI [57]: 1380 µM
- TGI [72]: 1570 µM
- TGI [58]: 2150 µM
- TGI [59]: 2270 µM
- TGI [60]: 2170 µM
- TGI [61]: 1210 µM
- TGI [62]: 868 µM
- TGI [63]: 404 µM
- TGI [64]: 1830 µM
- TGI [65]: 2500 µM
- TGI [66]: 1670 µM
- TGI [67]: 1670 µM
- TGI [68]: 1420 µM
- TGI [69]: 1690 µM
